# Laboratory results taken from PubChem BioAssay (NCI).
# Several values for one entry are separate records, joined by “and”; a condition that tells them apart may be missing. Equal values may be shown once.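 Where inhibition never reached the appropriate level, the endpoint shown equals the highest concentration tested. Otherwise, values were interpolated linearly from a five-concentration, 48-hour dose response in 96-well plates. GI50 = concentration required for 50% inhibition of growth. TGI: concentration producing complete growth inhibition.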
# Experiments:
# Assay in all cases: inhibition of tumour cell growth, NCI panel, 48 h
# SR leukemia = system: SR leukemia
# HL-60(TB) leukemia = system: HL-60(TB) leukemia
# UACC-257 melanoma = system: UACC-257 melanoma
# A498 renal = system: A498 renal
# UACC-62 melanoma = system: UACC-62 melanoma
# HOP-62 NSCLC = system: HOP-62 NSCLC
# K-562 leukemia = system: K-562 leukemia
# UO-31 renal = system: UO-31 renal
# NCI-H226 lung = system: NCI-H226 lung
# OVCAR-4 ovarian = system: OVCAR-4 ovarian
# RPMI-8226 leukemia = system: RPMI-8226 leukemia
# SF-539 CNS = system: SF-539 CNS
Structure (SMILES),TGI (SR leukemia),TGI (HL-60(TB) leukemia),TGI (UACC-257 melanoma),TGI (A498 renal) [µM],TGI (UACC-62 melanoma) [µM],TGI (HOP-62 NSCLC),TGI (K-562 leukemia) [µM],TGI (UO-31 renal) [µM],TGI (NCI-H226 lung) [µM],TGI (OVCAR-4 ovarian),TGI (RPMI-8226 leukemia) [µM],TGI (SF-539 CNS),GI50 (HL-60(TB) leukemia) [µM],GI50 (UACC-257 melanoma) [µM]
O=C1OCC2OC(=O)c3cc(O)c(O)c(O)c3-c3c(O)c(O)c(O)c4c3C(=O)OC(C2OC(=O)c2cc(O)c(O)c(O)c2-c2c1cc(O)c(O)c2O)C1OC(=O)C2C4=C(O)C(=O)C23Oc2cc(O)c4c(c2[C@H]13)O[C@H](c1ccc(O)c(O)c1)[C@@H](O)C4 (stereo partly drawn),> 100 µM,51.8 µM,> 100 µM,> 100,45.6,> 100 µM,72.3,> 100,35.6,43.5 µM,64.4,,,
O=C1C(Br)=CC2(C=C1Br)CCNC1=C2C(=O)c2ncccc2C1=O,2.07 µM,8.26 µM,1.89 µM,2.62,1.84,1.73 µM,0.516,2.35,3.54,2.48 µM,2.46,0.841 µM,,
COC(=O)[C@@H](NC(=O)N(Cc1ccccc1)C[C@H](CC(C)C)NC(=O)[C@@H](NC(=O)OC(C)(C)C)C(C)C)C(C)C,> 100 µM,> 100 µM,> 100 µM,> 100,> 100,> 100 µM,> 100,> 100,> 100,> 100 µM,> 100,> 100 µM,,
CCCCCCCCCCCC(=O)OC[C@@H](C[As](=O)(O)O)OC(=O)CCCCCCCCCCC,57.2 µM,> 30 µM,31.7 µM,24.3,6.94,28.8 µM,> 55.1,27.9,34.1,29.1 µM,> 68.2,27.8 µM,,
CN1CC=C(c2c(N)nc(N)[nH]c2=O)CC1,> 100 µM,> 100 µM,> 100 µM,> 100,> 100,> 100 µM,> 100,> 100,> 100,> 100 µM,> 100,> 100 µM,,
O=[N+]([O-])c1c(F)c(F)c2c(c1F)N(CCCCCl)c1ccccc1S2,> 100 µM,5.7 µM,27.5 µM,21.1,26.9,38.3 µM,4.74,30.5,33.1,21.2 µM,20.8,31.9 µM,,
Cc1ccnc2c1C(=O)C1=C(OC(C)(C)CC1O)C2=O (stereo not drawn),15.4 µM,> 24 µM,3.47 µM,32,3.25,13.6 µM,> 100,11.3,21.2,12.8 µM,> 39.3,10.4 µM,,
CC(=O)OC(CCC1(C)OC1COc1ccc(CCNC(=O)C=C(C)C)cc1)C(C)(C)OC(C)=O (stereo not drawn),> 74.4 µM,> 56.7 µM,27.3 µM,> 100,> 100,> 100 µM,> 100,> 100,> 100,> 100 µM,60.7,> 100 µM,,
O=C(NCCN1CCOCC1)c1ccc(I)cc1,> 100 µM,> 100 µM,,> 100,> 100,,> 100,> 100,> 100,> 100 µM,> 100,> 100 µM,,
Cc1ccc(S(=O)(=O)C2=C(C(C)C)N=NC2(C)C)cc1,> 100 µM,> 100 µM,> 100 µM,> 100,,> 100 µM,> 100,> 100,> 100,> 100 µM,53.8,> 100 µM,,
CCC1CC(O)c2c(O)c3c(c(O)c2C1O)C(=O)c1cccc(O)c1C3=O (stereo not drawn) (tested in a mixture with another compound),0.0605 µM and 0.0406 µM,0.0866 µM and 0.0744 µM,0.0941 µM and 0.0404 µM,0.03,0.0396,0.197 µM and 1.79 µM,0.0319,0.038,0.0532,0.0932 µM and 0.0821 µM,0.0663,0.0957 µM and 0.0893 µM,0.0177,0.0101
Cc1c2ccc3ccccc3c2c[n+]2ccccc12,53.5 µM,> 75.6 µM,23.8 µM,> 94.4,33.9,45.7 µM,54.6,60.6,20.1,38.8 µM,66.2,43.4 µM,,
COc1ccc(/C(Cl)=C(\C#N)c2ccc(OC)c(OC)c2)cc1OC,> 100 µM,> 100 µM,> 100 µM,> 100,> 100,> 100 µM,> 100,> 100,> 100,> 100 µM,60.4,> 100 µM,,
CS(=O)(=O)N1CC(CCl)c2ccc(O)cc21 (stereo not drawn),77.4 µM,6.19 µM,5.95 µM,3.78,28.7,13 µM,> 100,5.79,6.83,9.9 µM,6.91,5.05 µM,,
N#Cc1cc2c(cc1Cl)Sc1nnc(Nc3ccccc3)n1S2(=O)=O,0.696 µM,13.6 µM,3.58 µM,20.8,3.58,3.36 µM,11.1,3.89,5.99,7.79 µM,9.17,4.41 µM,,
Cc1ccc2c(c1)CC1(Cc3cccc(C)c3C1=O)C2=O (stereo not drawn),> 100 µM,> 100 µM,> 100 µM,> 100,> 100,> 100 µM,> 100,> 100,> 100,> 100 µM,> 100,> 100 µM,,
O=c1[nH]nc(Cc2ccc(Cl)cc2)n1/N=C/c1cccs1,> 100 µM,> 100 µM,> 100 µM,> 100,> 100,55.2 µM,> 100,> 100,> 100,> 100 µM,> 100,> 100 µM,,
COCCn1cnc2c(Cl)nc(Nc3ccccc3)nc21,> 100 µM,63.3 µM,> 100 µM,> 100,85.1,> 100 µM,> 100,,> 100,46.7 µM,> 100,> 100 µM,,
